Reference: ChEMBL document CHEMBL1909046, “DrugMatrix in vitro pharmacology data”

How the values were obtained:
[1] = target: Beta-3 adrenergic receptor (Homo sapiens, UniProt P13945); experiment: DRUGMATRIX: Adrenergic beta3 radioligand binding (ligand: [125I] Cyanopindolol); type: cell membranes, HEK293, Membrane; details: hek293; Not Active = under 50% inhibition at 10 µM
[2] = target: T1, 5-hydroxytryptamine receptor 2C (Homo sapiens, UniProt P28335); experiment: DRUGMATRIX: Serotonin (5-Hydroxytryptamine) 5-HT2C radioligand binding (ligand: [3H] Mesulergine); type: cell membranes, CHO-K1, Membrane; details: Not Active = under 50% inhibition at 10 µM
T1 sequence (P28335 whole entry): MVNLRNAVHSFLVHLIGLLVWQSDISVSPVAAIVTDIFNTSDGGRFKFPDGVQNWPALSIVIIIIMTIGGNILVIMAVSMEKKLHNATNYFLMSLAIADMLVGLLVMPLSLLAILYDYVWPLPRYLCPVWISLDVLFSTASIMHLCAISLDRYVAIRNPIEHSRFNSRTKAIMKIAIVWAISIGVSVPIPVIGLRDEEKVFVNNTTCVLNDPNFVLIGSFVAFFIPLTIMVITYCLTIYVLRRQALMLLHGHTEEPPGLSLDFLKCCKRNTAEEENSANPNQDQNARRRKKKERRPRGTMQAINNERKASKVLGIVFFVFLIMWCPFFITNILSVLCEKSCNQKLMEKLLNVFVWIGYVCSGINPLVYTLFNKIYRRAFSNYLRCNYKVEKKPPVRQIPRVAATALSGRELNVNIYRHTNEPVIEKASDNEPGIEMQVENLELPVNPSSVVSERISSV

[3] = DRUGMATRIX: Serotonin (5-Hydroxytryptamine) 5-HT3 radioligand binding (ligand: [3H] GR-65630); type: cell membranes, Membrane; details: hek293; Not Active = under 50% inhibition at 10 µM
[4] = DRUGMATRIX: GABAA, Muscimol, Central radioligand binding (ligand: [3H] Muscimol); type: cell membranes, Rattus norvegicus, Wistar, Brain, Membrane; details: Not Active = under 50% inhibition at 10 µM
[5] = target: T2, Muscarinic acetylcholine receptor M5 (Homo sapiens, UniProt P08912); type: cell membranes, CHO-K1, Membrane; details: cho-k1; note: in other assays of this panel Not Active means under 50% inhibition at 10 µM
T2 sequence (P08912 whole entry): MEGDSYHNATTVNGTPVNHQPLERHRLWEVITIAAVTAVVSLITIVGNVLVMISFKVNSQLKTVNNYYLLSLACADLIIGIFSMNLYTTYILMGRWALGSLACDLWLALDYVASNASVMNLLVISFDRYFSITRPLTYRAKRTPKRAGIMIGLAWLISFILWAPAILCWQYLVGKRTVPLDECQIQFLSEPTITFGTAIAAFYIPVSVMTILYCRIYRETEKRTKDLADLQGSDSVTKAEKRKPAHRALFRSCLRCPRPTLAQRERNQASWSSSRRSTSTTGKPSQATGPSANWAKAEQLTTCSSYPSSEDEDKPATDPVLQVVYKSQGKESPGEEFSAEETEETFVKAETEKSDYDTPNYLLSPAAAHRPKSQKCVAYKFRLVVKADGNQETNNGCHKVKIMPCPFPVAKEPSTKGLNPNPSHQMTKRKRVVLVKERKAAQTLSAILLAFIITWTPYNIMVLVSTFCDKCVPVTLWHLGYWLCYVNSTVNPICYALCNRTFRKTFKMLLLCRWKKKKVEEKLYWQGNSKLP

[6] = target: Receptor tyrosine-protein kinase erbB-2 (Homo sapiens, UniProt P04626); experiment: biochemical; type: cell-based, Insect cells;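 note: inhibition of HER2 kinase enzyme activity, measured with Poly(Glu:Tyr) as the phosphorylation substrate; in other assays of this panel Not Active means under 50% inhibition at 10 µM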

Beta-3 adrenergic receptor, sequence (P13945 whole entry): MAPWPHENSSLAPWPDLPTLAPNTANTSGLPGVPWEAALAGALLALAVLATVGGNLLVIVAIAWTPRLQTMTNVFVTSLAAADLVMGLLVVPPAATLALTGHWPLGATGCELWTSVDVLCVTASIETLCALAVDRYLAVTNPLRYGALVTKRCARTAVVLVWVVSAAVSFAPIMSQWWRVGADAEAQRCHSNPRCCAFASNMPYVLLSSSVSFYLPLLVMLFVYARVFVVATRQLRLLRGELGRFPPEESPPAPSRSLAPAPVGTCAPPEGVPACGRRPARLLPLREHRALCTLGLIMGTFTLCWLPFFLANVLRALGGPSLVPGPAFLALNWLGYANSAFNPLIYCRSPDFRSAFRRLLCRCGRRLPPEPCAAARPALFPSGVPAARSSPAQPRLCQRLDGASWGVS

Molecule | IC50 [1] | IC50 ([2]; cho-k1) | IC50 [3] | Ki [3] | IC50 [4] | Ki [4] | IC50 [5] | IC50 ([6]; insect cells) | IC50 ([2]; read-out: IC50) | Ki ([2]; read-out: Ki) | IC50 ([6]; read-out: IC50) | Ki [1] | Ki ([2]; cho-k1) | Ki [5] | Ki ([6]; insect cells)
Cn1c(=O)c2c(ncn2CC(O)CO)n(C)c1=O (centres undefined) [DYPHYLLINE] | Not Active | Not Active | Not Active | Not Active | Not Active | Not Active | Not Active | Not Active | – | – | – | – | – | – | –
O=C(O)c1cccnc1Nc1cccc(C(F)(F)F)c1 [NIFLUMIC ACID] | Not Active | Not Active | Not Active | Not Active | Not Active | Not Active | Not Active | Not Active | – | – | – | – | – | – | –
CC(C)c1cccc(C(C)C)c1O [PROPOFOL] | Not Active | – | Not Active | Not Active | Not Active | Not Active | Not Active | Not Active | 11.6 µM | 6.05 µM | – | – | – | – | –
COC(=O)Nc1nc2ccc(C(=O)c3cccs3)cc2[nH]1 [NOCODAZOLE] | Not Active | Not Active | Not Active | Not Active | Not Active | Not Active | Not Active | Not Active | – | – | – | – | – | – | –
N=C(N)NC(=O)Cc1c(Cl)cccc1Cl [GUANFACINE] | Not Active | – | Not Active | Not Active | Not Active | Not Active | Not Active | Not Active | 1.45 µM | 0.761 µM | – | – | – | – | –
CC(C)NCC(O)COc1cccc2[nH]ccc12 (centres undefined) [PINDOLOL] | – | Not Active | Not Active | Not Active | Not Active | Not Active | Not Active | Not Active | – | – | – | – | – | – | –
CC(=O)[C@@]1(O)CC[C@H]2[C@@H]3CCC4=CC(=O)CC[C@]4(C)[C@H]3CC[C@@]21C [HYDROXYPROGESTERONE] | Not Active | Not Active | Not Active | Not Active | Not Active | Not Active | Not Active | Not Active | – | – | – | – | – | – | –
CC(=O)O[C@H]1C(=O)[C@@]2(C)[C@H]([C@H](OC(=O)c3ccccc3)[C@]3(O)C[C@H](OC(=O)[C@H](O)[C@@H](NC(=O)c4ccccc4)c4ccccc4)C(C)=C1C3(C)C)[C@]1(OC(C)=O)CO[C@@H]1C[C@@H]2O [PACLITAXEL] | Not Active | Not Active | Not Active | Not Active | Not Active | Not Active | Not Active | – | – | – | 11.1 µM | – | – | – | –
CCCOc1ccc(C(=O)OCCN(CC)CC)cc1N [PROPARACAINE] | Not Active | Not Active | Not Active | Not Active | Not Active | Not Active | Not Active | Not Active | – | – | – | – | – | – | –
O=C(N/N=C/c1ccc([N+](=O)[O-])o1)c1cc([N+](=O)[O-])cc([N+](=O)[O-])c1O [NIFURSOL] | Not Active | Not Active | Not Active | Not Active | Not Active | Not Active | Not Active | Not Active | – | – | – | – | – | – | –
CC(=O)Oc1ccc(C(c2ccc(OC(C)=O)cc2)c2ccccn2)cc1 [BISACODYL] | Not Active | Not Active | Not Active | Not Active | Not Active | Not Active | Not Active | Not Active | – | – | – | – | – | – | –
CN(C)[C@@H]1C(O)=C(C(N)=O)C(=O)[C@@]2(O)C(O)=C3C(=O)c4c(O)ccc(Cl)c4[C@@](C)(O)[C@H]3C[C@@H]12 [CHLORTETRACYCLINE] | Not Active | Not Active | Not Active | Not Active | Not Active | Not Active | Not Active | Not Active | – | – | – | – | – | – | –
Nc1ccn([C@@H]2O[C@H](CO)[C@@H](O)[C@@H]2O)c(=O)n1 [CYTARABINE] | Not Active | Not Active | Not Active | Not Active | Not Active | Not Active | Not Active | Not Active | – | – | – | – | – | – | –
CCC1(CCC(C)C)C(=O)NC(=O)NC1=O [AMOBARBITAL] | Not Active | Not Active | Not Active | Not Active | Not Active | Not Active | Not Active | Not Active | – | – | – | – | – | – | –
AURANOFIN | Not Active | Not Active | Not Active | Not Active | Not Active | Not Active | Not Active | Not Active | – | – | – | Not Active | Not Active | Not Active | Not Active
O=C/C=C/c1ccccc1 | Not Active | Not Active | Not Active | Not Active | Not Active | Not Active | Not Active | Not Active | – | – | – | – | – | – | –
C=CCc1ccc(O)c(OC)c1 [EUGENOL] | Not Active | Not Active | Not Active | Not Active | Not Active | Not Active | Not Active | Not Active | – | – | – | – | – | – | –
COC1=C(OC)C(=O)C(CCCCCCCCCCO)=C(C)C1=O [IDEBENONE] | Not Active | Not Active | Not Active | Not Active | Not Active | Not Active | Not Active | Not Active | – | – | – | – | – | – | –
Oc1cccc(O)c1O [PYROGALLOL] | Not Active | Not Active | Not Active | Not Active | Not Active | Not Active | Not Active | Not Active | – | – | – | – | – | – | –
C[C@]12C=CC(=O)C=C1CC[C@@H]1[C@@H]2[C@@H](O)C[C@@]2(C)[C@H]1CC[C@]2(O)C(=O)CO [PREDNISOLONE] | Not Active | Not Active | Not Active | Not Active | Not Active | Not Active | Not Active | Not Active | – | – | – | – | – | – | –
CC(=O)[C@H]1[C@H](C#N)C[C@H]2[C@@H]3CC=C4C[C@@H](O)CC[C@]4(C)[C@H]3CC[C@@]21C [PREGNENOLONE CARBONITRILE] | Not Active | Not Active | Not Active | Not Active | Not Active | Not Active | Not Active | Not Active | – | – | – | – | – | – | –
COc1ccc2cc3[n+](cc2c1OC)CCc1cc2c(cc1-3)OCO2.[Cl-] [BERBERINE CHLORIDE] | Not Active | Not Active | – | – | Not Active | Not Active | Not Active | Not Active | – | – | – | – | – | – | –
CCCNCC(O)COc1ccccc1C(=O)CCc1ccccc1 (centres undefined) [PROPAFENONE] | – | – | Not Active | Not Active | Not Active | Not Active | Not Active | Not Active | – | – | – | – | – | – | –
COc1cc(N)c(Cl)cc1C(=O)NC1CCN(CCCOc2ccc(F)cc2)CC1OC (centres undefined) [CISAPRIDE] | Not Active | – | Not Active | Not Active | Not Active | Not Active | Not Active | Not Active | – | – | – | – | – | – | –
COc1cc2nc(N3CCN(C(=O)c4ccco4)CC3)nc(N)c2cc1OC [PRAZOSIN] | Not Active | Not Active | – | – | Not Active | Not Active | Not Active | Not Active | – | – | – | – | – | – | –
CN1[C@@H]2CC[C@H]1C[C@@H](OC(=O)C(CO)c1ccccc1)C2 (some centres undefined) [ATROPINE] | Not Active | – | Not Active | Not Active | Not Active | Not Active | – | Not Active | – | – | – | – | – | – | –
